In US10933056B2, “3-(1H-pyrazol-4-yl)pyridine allosteric modulators of the M4 muscarinic acetylcholine receptor” (Merck Sharp & Dohme Corp., priority 2015, dated 2021):

The molecules below were run against T1, human M4 muscarinic acetylcholine receptor (Homo sapiens, UniProt P08173) (assay: human FLIPR-based M4 PAM assay (calcium mobilization in CHO-K1 cells with human M4 receptor and Gαqi5)). Conditions: inflection point of dose response curve, acetylcholine at 20% of maximum response, FLIPR Tetra, read-out: M4 PAM IP.
T1 construct: expressed in transfected cells; host or cells: CHO-K1
T1 sequence (P08173 1-479): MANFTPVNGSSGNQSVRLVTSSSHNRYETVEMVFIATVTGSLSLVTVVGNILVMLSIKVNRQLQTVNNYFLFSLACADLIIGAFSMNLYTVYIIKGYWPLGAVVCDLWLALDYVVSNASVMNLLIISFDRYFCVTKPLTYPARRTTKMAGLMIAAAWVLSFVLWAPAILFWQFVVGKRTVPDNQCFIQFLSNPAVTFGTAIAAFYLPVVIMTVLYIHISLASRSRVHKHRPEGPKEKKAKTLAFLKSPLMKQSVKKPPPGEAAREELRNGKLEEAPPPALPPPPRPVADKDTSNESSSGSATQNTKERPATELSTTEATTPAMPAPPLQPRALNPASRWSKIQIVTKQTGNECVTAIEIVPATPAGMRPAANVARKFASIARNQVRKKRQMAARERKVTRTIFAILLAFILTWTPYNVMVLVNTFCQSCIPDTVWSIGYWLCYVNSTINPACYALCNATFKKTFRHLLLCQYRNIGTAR
Type: cell-based
Outline: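 CHO-K1 cells stably expressing human M4 and chimeric Gαqi5 were dye-loaded ~1 h at 37° C. Test compound was added with fluorescence recorded 4 min, then acetylcholine at EC20 (sometimes a further EC70 addition) with reading 3.5 min. Value is the inflection point of a 4-parameter logistic fit.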

EC50 [nM]	SMILES
9	Cc1ccc(-c2cnn(CC3CCCC3)c2F)c(-c2ccc3c(c2)C(=O)N(C)C3)n1 [Example 76, 6-(3-(1-(cyclopentylmethyl)-5-fluoro-1H-pyrazol-4-yl)-6-methylpyridin-2-yl)-2-methylisoindolin-1-one]
85	Cc1cc(-c2cnn(CC3(C)CCCC3)c2)c(-c2ccc3c(c2)C(=O)N(C)C3)nc1CO [Example 77, 6-(6-(hydroxymethyl)-5-methyl-3-(1-((1-methylcyclopentyl)methyl)-1H-pyrazol-4-yl)pyridin-2-yl)-2-methylisoindolin-1-one]
32	CN1Cc2ccc(-c3nc(C#N)c(Cl)cc3-c3cnn(CC4(C)CCCC4)c3)cc2C1=O [Example 78, 3-chloro-6-(2-methyl-3-oxoisoindolin-5-yl)-5-(1-((1-methylcyclopentyl)methyl)-1H-pyrazol-4-yl)picolinonitrile]
108	CN1Cc2ccc(-c3nc(C#N)ccc3-c3cnn(CC4(C)CCCC4)c3Cl)cc2C1=O [Example 79, 5-(5-chloro-1-((1-methylcyclopentyl)methyl)-1H-pyrazol-4-yl)-6-(2-methyl-3-oxoisoindolin-5-yl)picolinonitrile]
26	CN1Cc2ncc(-c3nc(C(F)F)ccc3-c3cnn(CC4(C)CCCC4)c3)cc2C1=O [Example 80, 3-(6-(difluoromethyl)-3-(1-((1-methylcyclopentyl)methyl)-1H-pyrazol-4-yl)pyridin-2-yl)-6-methyl-6,7-dihydro-5H-pyrrolo[3,4-b]pyridin-5-one]
46	CN1Cc2ncc(-c3nc(C(F)(F)F)ccc3-c3cnn(CC4(C)CCCC4)c3)cc2C1=O [Example 81, 6-methyl-3-(3-(1-((1-methylcyclopentyl)methyl)-1H-pyrazol-4-yl)-6-(trifluoromethyl)pyridin-2-yl)-6,7-dihydro-5H-pyrrolo[3,4-b]pyridin-5-one]
310	CC1(Cn2cc(-c3ccc(C#N)nc3-c3ccc4c(c3)C(=O)N(C3COC3)C4)cn2)CCCC1 [Example 82, 5-(1-((1-methylcyclopentyl)methyl)-1H-pyrazol-4-yl)-6-(2-(oxetan-3-yl)-3-oxoisoindolin-5-yl)picolinonitrile]
100	O=C1c2cc(-c3ncccc3-c3cnn(CC4CCCC4)c3)ccc2CN1c1ccccc1 [Example 83, 6-(3-(1-(cyclopentylmethyl)-1H-pyrazol-4-yl)pyridin-2-yl)-2-phenylisoindolin-1-one]
47	O=C1c2cc(-c3ncccc3-c3cnn(CC4CCCC4)c3)ccc2CN1CC1CC1 [Example 84, 6-(3-(1-(Cyclopentylmethyl)-1H-pyrazol-4-yl)pyridin-2-yl)-2-(cyclopropylmethyl)isoindolin-1-one]
60	O=C1c2cc(-c3ncccc3-c3cnn(CC4CCCC4)c3)ccc2CN1CC1CCCO1 (stereo not shown) [Example 85, 6-(3-(1-(cyclopentylmethyl)-1H-pyrazol-4-yl)pyridin-2-yl)-2-((tetrahydrofuran-2-yl)methyl)isoindolin-1-one]
62	O=C1c2cc(-c3ncccc3-c3cnn(CC4CCCC4)c3)ccc2CN1CC1CCC1 [Example 86, 2-(cyclobutylmethyl)-6-(3-(1-(cyclopentylmethyl)-1H-pyrazol-4-yl)pyridin-2-yl)isoindolin-1-one]
319	N#CC1(N2Cc3ccc(-c4ncccc4-c4cnn(CC5CCCC5)c4)cc3C2=O)CC1 [Example 87, 1-(6-(3-(1-(cyclopentylmethyl)-1H-pyrazol-4-yl)pyridin-2-yl)-1-oxoisoindolin-2-yl)cyclopropane-1-carbonitrile]
240	O=C1c2cc(-c3ncccc3-c3cnn(CC4CCCC4)c3)ccc2CN1C1COC1 [Example 88, 6-(3-(1-(cyclopentylmethyl)-1H-pyrazol-4-yl)pyridin-2-yl)-2-(oxetan-3-yl)isoindolin-1-one]
32	O=C1c2cc(-c3ncccc3-c3cnn(CC4CCCC4)c3)ccc2CN1C1CCC1 [Example 89, 2-cyclobutyl-6-(3-(1-(cyclopentylmethyl)-1H-pyrazol-4-yl)pyridin-2-yl)isoindolin-1-one]
359	CNC(=O)C1(N2Cc3ccc(-c4ncccc4-c4cnn(CC5CCCC5)c4)cc3C2=O)CC1 [Example 90, 1-(6-(3-(1-(cyclopentylmethyl)-1H-pyrazol-4-yl)pyridin-2-yl)-1-oxoisoindolin-2-yl)-N-methylcyclopropane-1-carboxamide]
49	NS(=O)(=O)c1ccc(CCN2Cc3ccc(-c4ncccc4-c4cnn(CC5CCCC5)c4)cc3C2=O)cc1 [Example 91, 4-(2-(6-(3-(1-(cyclopentylmethyl)-1H-pyrazol-4-yl)pyridin-2-yl)-1-oxoisoindolin-2-yl)ethyl)benzenesulfonamide]

EC50 [nM]	SMILES
45	O=C1c2cc(-c3ncccc3-c3cnn(CC4CCCC4)c3)ccc2CN1CCc1ccccc1 [Example 92, 6-(3-(1-(cyclopentylmethyl)-1H-pyrazol-4-yl)pyridin-2-yl)-2-phenethylisoindolin-1-one]
58	O=C1c2cc(-c3ncccc3-c3cnn(CC4CCCC4)c3)ccc2CN1C1CC1 [Example 93, 6-(3-(1-(cyclopentyl-methyl)-1H-pyrazol-4-yl)pyridin-2-yl)-2-cyclopropylisoindolin-1-one]
29	O=C1c2cc(-c3ncccc3-c3cnn(CC4CCCC4)c3)ccc2CN1CCc1ccc(O)cc1 [Example 94, 6-(3-(1-(cyclopentylmethyl)-1H-pyrazol-4-yl)pyridin-2-yl)-2-(4-hydroxyphenethyl)isoindolin-1-one]
21	CN1Cc2ncc(-c3nc(C#N)ccc3-c3cnn(CC4(C)CCCC4)c3)cc2C1=O [Example 95, 6-(6-Methyl-5-oxo-6,7-dihydro-5H-pyrrolo[3,4-b]pyridin-3-yl)-5-(1-((1-methylcyclopentyl)methyl)-1H-pyrazol-4-yl)picolinonitrile]
56	CN1Cc2ccc(-c3ncccc3-c3cnn(CC4CCCC4)c3)cc2C1=O [Example 96, 6-(3-(1-(cyclopentylmethyl)-1H-pyrazol-4-yl)pyridin-2-yl)-2-methylisoindolin-1-one]
16	Cc1ccc(-c2cnn(CC3CCCC3)c2)c(-c2ccc3c(c2)C(=O)N(C)C3)n1 [Example 97, 6-(3-(1-(cyclopentylmethyl)-1H-pyrazol-4-yl)-6-methylpyridin-2-yl)-2-methylisoindolin-1-one]
29	Cc1ccc(-c2cnn(CC3(C)CCCC3)c2)c(-c2ccc3c(c2)C(=O)N(C)C3=O)n1 [Example 98, 2-methyl-5-(6-methyl-3-(1-((1-methylcyclopentyl)methyl)-1H-pyrazol-4-yl)pyridin-2-yl)isoindoline-1,3-dione]
19	Cc1ccc(-c2cnn(CC3(C)CCCC3)c2)c(-c2ccc3c(c2)C(=O)NC3=O)n1 [Example 99, 5-(6-methyl-3-(1-((1-methylcyclopentyl)methyl)-1H-pyrazol-4-yl)pyridin-2-yl)isoindoline-1,3-dione]
26	Cc1cc(-c2cnn(CC3(C)CCCC3)c2)c(-c2cnc3c(c2)C(=O)N(C)C3)nc1Cl [Example 100, 3-(6-chloro-5-methyl-3-(1-((1-methylcyclopentyl)methyl)-1H-pyrazol-4-yl)pyridin-2-yl)-6-methyl-6,7-dihydro-5H-pyrrolo[3,4-b]pyridin-5-one]
18	CC1(Cn2cc(-c3ccc(C#N)nc3-c3cnc4c(c3)C(=O)NC4)cn2)CCCC1 [Example 101, 5-(1-((1-methylcyclopentyl)methyl)-1H-pyrazol-4-yl)-6-(5-oxo-6,7-dihydro-5H-pyrrolo[3,4-b]pyridin-3-yl)picolinonitrile]
35	CC1(Cn2cc(-c3ccc(C#N)nc3-c3cnc4c(c3)C(=O)N(CC3CC3)C4)cn2)CCCC1 [Example 102, 6-(6-(cyclopropylmethyl)-5-oxo-6,7-dihydro-5H-pyrrolo[3,4-b]pyridin-3-yl)-5-(1-((1-methylcyclopentyl)methyl)-1H-pyrazol-4-yl)picolinonitrile]
33	CC1(Cn2cc(-c3ccc(C#N)nc3-c3cnc4c(c3)C(=O)N(CCF)C4)cn2)CCCC1 [Example 103, 6-(6-(2-fluoroethyl)-5-oxo-6,7-dihydro-5H-pyrrolo[3,4-b]pyridin-3-yl)-5-(1-((1-methylcyclopentyl)methyl)-1H-pyrazol-4-yl)picolinonitrile]
14	Cc1ccc(-c2cnn(CC3(C)CCCC3)c2)c(-c2ccc3c(c2)C(=O)NC3)n1 [Example 104, 6-(6-methyl-3-(1-((1-methylcyclopentyl)methyl)-1H-pyrazol-4-yl)pyridin-2-yl)isoindolin-1-one]
36	CC1(Cn2cc(-c3ccc(C#N)nc3-c3cnc4c(c3)C(=O)N(C3CC3)C4)cn2)CCCC1 [Example 105, 6-(6-cyclopropyl-5-oxo-6,7-dihydro-5H-pyrrolo[3,4-b]pyridin-3-yl)-5-(1-((1-methylcyclopentyl)methyl)-1H-pyrazol-4-yl)picolinonitrile]
43	CC1(Cn2cc(-c3ccc(Cl)nc3-c3cnc4c(c3)C(=O)N(CC3CC3)C4)cn2)CCCC1 [Example 106, 3-(6-chloro-3-(1-((1-methylcyclopentyl)methyl)-1H-pyrazol-4-yl)pyridin-2-yl)-6-(cyclopropylmethyl)-6,7-dihydro-5H-pyrrolo[3,4-b]pyridin-5-one]
